Source: US9572760B2, “Uses of compounds and mixtures from Antrodia cinnamomea mycelia” (Simpson Biotech Co., Ltd., priority 2013, dated 2017)

Columns and labels:
HSC [1] = assay: HSC proliferation by BrdU assay; type: cell-based; conditions: highest concentration (80 μM), 72 hours
Experimental: The Cell Proliferation ELISA, BrdU kit was designed to quantitate cell proliferation bases on the measurement of BrdU incorporation during DNA synthesis in proliferation cells. Briefly, cells (1×10^4 cells/well) were seeded in 100 μl medium in a 96-well plate (Nunc, Denmark) and cultured for 24 h to allow the cells to attach and then treated with three different concentrations ([…]) of either Compound A, B, C and D for 24 h, 48 h and 72 h and the plates were incubated in 37° C. After incubation, the culture medium was labeled with 10 μl/well BrdU (Roche Diagnostic Inc.), and the cells were reincubated for addition 16 h at 37° C. Labeling medium was removed using 10 min centrifuge at 200×g and blow dried. Cells were fixed using 200 μl FixDenat solution and incubated for 30 min at room temperature. Removing the FixDenat solution, 100 μl of anti-BrdU-POD was added and incubated for 90 min at room temperature. After the incubation period, microplates were washed three times with PBS buffer and 100 μl substrate solution was added and incubated for 30 min. Stop solution was added (25 μl of 1 M H2SO4) and absorbance of the samples was measured using ELISA reader at 450 nm.

HSC [2] = assay: HSC apoptosis by cell death detection ELISA; type: cell-based; conditions: highest concentration (80 μM), 72 hours
Experimental: Apoptosis was detected with a sandwich immunoassay system using a cell death detection ELISA kit (Roche Diagnostic Inc.). Roche's Cell Death Detection ELISA kit qualitatively and quantitatively detects the amount of cleaved DNA/histone complexes (nucleosomes) in a given sample using a sandwich-enzyme-immunoassay-based method. The cells (1×10^4 cells/well) were seeded in 100 μl medium in a 96-well plate (Nunc, Denmark) and cultured for 24 h to allow the cells to attach and then treated with three different concentrations (8 μM, 24 μM and 80 μM) of either Compound A, B, C and D for 24 h, 48 h and 72 h and the plates were incubated in 37° C. After incubation, the 96 well plates were centrifuged for 10 min at 200×g and removed supernatant and discard, then added 200 μl of lysis buffer per well using multipipetman and incubated 30 min at room temperature, microplates were centrifuged the lysate at 200×g for 10 min. After the centrifuge, 20 μl of the supernatant was transferred into the streptavidin-coated microplate, then added 80 μl of immunoreagent to each well. The microplate was covered with an adhesive foil and incubated on a shaker under gentle shaking for 2 hour at room temperature. After the incubation period, microplates were washed three times with 250-300 μl incubation buffer and 100 μl ABTS solution was added and incubated for 30 min or until color is sufficient for photometric. ABTS Stop solution was added and absorbance of the samples was measured using ELISA reader at 405 nm, reference wavelength at 490 nm.

B16F10 cells = assay: Melanin content in B16F10 cells after UV irradiation; type: cell-based, murine; conditions: 10 μM for 72 hrs prior to UV irradiation; UV alone 33.80±4.6% increase over non-UV cells (7.4±0.3 μg/mg protein)
From the text: (§1) The dermal fibroblast cell line CG1639 was obtained from the BCRC (Bioresource Collection and Research Center) and cultured in Dulbecco's modified Eagle media (DMEM, Gibco by Invitrogen) with 1% antibiotic antimycotic (Gibco by Invitrogen) and 15% fetal bovine serum (Gibco by Invitrogen). The fetal rat skin keratinocyte, FRSK cell line was obtained from the Japan HSRRB (Health Science Research Resources Bank) and cultured in Eagle's minimal essential media (MEM, Gibco by Invitrogen) supplemented with 10% fetal bovine serum (FBS) (Gibco by Invitrogen) and 1% antibiotic antimycotic (Gibco by Invitrogen). B16F10 cells, a murine melanoma cell line, were purchased from American Type Culture Collection (ATCC, Rockville, Md., USA) and was cultured in Eagle's Minimum Essential Medium (MEM; Sigma, St. Louis, Mo.) supplemented with 10% fetal bovine serum (FBS; HyClone Lab. Inc., Logan, Utah), 0.02% antibiotic-antimycotic liquid (penicillin, 10 000 U mL^−1; streptomycin, 10 000 μg mL^−1 and amphotericin B, 25 μg mL^−1; Invitrogen, Carlsbad, Calif.).
(§2) To investigate the induction of melanogenesis and the oxidative stress by direct UV irradiation, melanoma cells and keratocytes were irradiated with 8 J cm^−2 of UVA (FL15BLB, 352 nm, 15 W; Toshiba, Tokyo, Japan) and 10 mJ cm^−2 of UVB (G15T8E, 306 nm, 15 W; Sankyo Denki, Tokyo, Japan) in a HANKS' balanced salt solution (Sigma). The UV intensity was measured by using a Model UVX Digital Radiometer (UVP Inc., Upland, Calif.).
(§3) B16F10 and FRSK cells were exposed to Hepasim compounds A-D by two different concentrations (3 or 10 μM) for 72 hrs prior to UVA irradiation. DMEM was replaced with phosphate buffered saline (PBS) to avoid generation of medium-derived toxic photoproducts prior to UV irradiation. Cells were collected 24 hrs after UVA irradiation and assayed. For preparation of cell lysate, the harvested cells were pelleted by centrifugation and lysed in lysis buffer containing 50 mM Tris-HCl, 10 mM ethylene diaminetetraacetic acid (EDTA), 1% (v/v) Tri-ton X-100, phenylmethylsulfonyl fluoride (PMSF) (100 mg/ml) and pepstatin A (1 mg/ml) in DMSO and leupeptin (1 mg/ml) in H2O, pH 6.8. The cells were centrifuged at 10,000 rpm for 10 min and the total cell lysate was collected and stored at −80° C.
In order to measure the melanin contents, B16F10 cells were sonicated on ice and the mixture was centrifuged (25 000 g, 10 min, 4° C.). The supernatant was transferred, and pellets were dissolved in 0.85 N KOH at 60° C. for 20 min. Standard melanin (Sigma) was incubated in parallel. Spectrophotometric analysis of melanin content was then performed at an absorbance of 405 nm

tyrosinase = biological target: T1, tyrosinase (Mus musculus, UniProt P11344); assay: Cellular tyrosinase activity assay (L-DOPA oxidation) in B16F10 cells exposed to UV; type: cell-based, murine; conditions: UV alone 52.55±4.36% increase over non-UV control (3.0±0.5 U/mg protein)
T1 construct: endogenous in cells; host or cells: B16F10 murine melanoma cells (ATCC), total cell lysate
T1 sequence (P11344 19-533): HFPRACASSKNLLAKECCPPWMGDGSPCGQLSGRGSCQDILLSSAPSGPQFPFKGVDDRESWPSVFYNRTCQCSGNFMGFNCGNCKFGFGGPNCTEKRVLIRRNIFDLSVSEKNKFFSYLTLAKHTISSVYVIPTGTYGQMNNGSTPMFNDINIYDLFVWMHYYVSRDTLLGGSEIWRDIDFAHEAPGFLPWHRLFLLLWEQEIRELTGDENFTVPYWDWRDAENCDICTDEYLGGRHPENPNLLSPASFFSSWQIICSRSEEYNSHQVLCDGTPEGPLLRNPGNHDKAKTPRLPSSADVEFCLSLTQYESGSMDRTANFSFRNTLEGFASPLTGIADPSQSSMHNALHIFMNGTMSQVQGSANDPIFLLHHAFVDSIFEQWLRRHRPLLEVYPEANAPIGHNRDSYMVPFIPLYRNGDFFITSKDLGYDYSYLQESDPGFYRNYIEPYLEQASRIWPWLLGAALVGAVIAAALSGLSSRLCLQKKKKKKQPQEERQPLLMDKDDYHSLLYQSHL
From the text: as §1, §2, §3
The rate of L-DOPA oxidation was measured to assess cellular tyrosinase activity in B16F10 cells exposed to UV. The assay was performed as below described, 20 mM L-DOPA used as the substrates was added to each lysate in a 96-well plate and absorbance of dopachrome formation was measured spectrophotometrically at 475 nm every 10 min for 1 h at 37° C. by a spectrophotometer. The tyrosinase activity was calculated by comparison to a standard curve using tyrosinase (2034 U/mg) and was expressed as unit/mg protein. The data are expressed as a percentage of the tyrosinase activity (unit/mg protein) of non-irradiated and untreated control cells (100%).

Question: How did the “HSC proliferation (BrdU assay)” value (HSC [1]) turn out when `CC(C)=CCOc1ccc([C@H]2C(=O)N(O)C(=O)[C@@H]2CC(C)C)cc1` (relative stereo) [Compound D, (3R*,4S*)-1-hydroxy-3-isobutyl-4-[4-(3-methyl-2-butenyloxy)phenyl]pyrrolidine-2,5-dione] was run?
Answer: same but delayed

Question: And the “apoptosis of HSC (cell death detection assay)” value (HSC [2])?
Answer: same but delayed

Question: And the “melanin production in UV-irradiated B16F10 cells” value (B16F10 cells)?
Answer: 26.32±2.3%

Question: What about the “tyrosinase activity in UV-irradiated B16F10 cells” value (“tyrosinase activity” for short) (tyrosinase; 3 μM) of the same compound?
Answer: 38.5±4.5%

Question: What about the “tyrosinase activity” value (tyrosinase; 10 μM) of the same compound?
Answer: 29.25±2.6%

Question: Which “melanin production in UV-irradiated B16F10 cells” value (B16F10 cells) does the source give for `CC(C)=CCOc1ccc(C2=C(CC(C)C)C(=O)OC2=O)cc1` [Compound A, 3-isobutyl-4-[4-(3-methyl-2-butenyloxy)phenyl]furan-2,5-dione] here?
Answer: 23.25±5.5%

Question: And the “tyrosinase activity” value (tyrosinase; 3 μM)?
Answer: 43.50±3.5%

Question: And the “tyrosinase activity” value (tyrosinase; 10 μM)?
Answer: 26.75±2.3%
